The numbers were not newly measured in patent US11596657B2, “Use of AhR agonist for the preventive or curative treatment of metabolic syndrome and the associated disorders” (INSTITUT NATIONAL DE LA RECHERCHE AGRONOMIQUE, priority 2016, dated 2023), which cites them from elsewhere.

Data set [1] relates to male C57Bl/6J mice fed a Western diet.
A further data set addresses T1, human AhR (Homo sapiens, UniProt P35869).
T1 sequence (P35869 11-848): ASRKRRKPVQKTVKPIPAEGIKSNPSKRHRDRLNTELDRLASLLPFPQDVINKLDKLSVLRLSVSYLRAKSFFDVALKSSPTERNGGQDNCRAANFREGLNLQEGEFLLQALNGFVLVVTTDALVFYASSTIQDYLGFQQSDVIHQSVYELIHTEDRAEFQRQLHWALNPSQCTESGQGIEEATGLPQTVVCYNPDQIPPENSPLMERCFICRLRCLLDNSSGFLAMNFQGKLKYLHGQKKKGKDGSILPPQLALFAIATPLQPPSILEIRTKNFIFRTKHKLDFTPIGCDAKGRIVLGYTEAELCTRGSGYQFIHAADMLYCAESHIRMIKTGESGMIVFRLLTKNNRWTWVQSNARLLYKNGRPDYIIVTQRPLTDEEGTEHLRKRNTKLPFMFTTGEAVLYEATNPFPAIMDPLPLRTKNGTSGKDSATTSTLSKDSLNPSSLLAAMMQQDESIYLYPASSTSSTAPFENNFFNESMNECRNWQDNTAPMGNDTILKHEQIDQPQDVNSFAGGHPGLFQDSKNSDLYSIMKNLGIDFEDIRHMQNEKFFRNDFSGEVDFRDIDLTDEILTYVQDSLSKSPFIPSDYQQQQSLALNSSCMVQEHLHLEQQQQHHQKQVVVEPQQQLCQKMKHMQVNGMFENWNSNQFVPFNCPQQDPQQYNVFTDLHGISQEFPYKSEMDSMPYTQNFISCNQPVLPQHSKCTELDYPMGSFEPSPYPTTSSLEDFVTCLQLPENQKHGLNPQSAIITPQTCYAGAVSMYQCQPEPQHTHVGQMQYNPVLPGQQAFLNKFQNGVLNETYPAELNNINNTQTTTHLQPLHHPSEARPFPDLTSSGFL
The note with it: potency compared with TCDD.

As for `Cc1ccccc1N=Nc1ccc(NC(=O)c2ccnn2C)c(C)c1` [CH-223191], in data set [1], the “obesity, adiposity and liver steatosis” value was “significantly reduce obesity and adiposity and ameliorates liver steatosis”.

For the compound `Cc1cc(C)c(C=C2C(=O)Nc3ccccc32)[nH]1` [SU5416, 3-(3,5-dimethyl-1H-pyrrol-2-ylmethylene)-1,3-dihydro-indole-2-one], the “activation of human AhR” value on human AhR was “activates the human AhR with a potency approaching TCDD”. As for `O=c1cc(-c2ccccc2)oc2c1ccc1ccccc12` [α-naphthoflavone], the “obesity, adiposity and liver steatosis” value in data set [1] was “significantly reduce obesity and adiposity and ameliorates liver steatosis”.
